The term KD denotes the concentration at which binding is half-saturated. A low value points to higher affinity.

The structures appear in SMILES notation.

6 compounds from paper PMC6964667 (2020) can be followed below.

In assay [1] the test system is D3' (DNA, hairpin) CATTGTTATGCCTTTTTGGCATAACAATG
Put plainly: CD/UV melting at 260 nm. As to conditions: 10 mM KCl, 10 mM MgCl2, 5 mM CaCl2; sodium dimethyl arsinate pH 6.9, 6% DMSO; 3.7 equiv compound, 8.87 μM DNA.

In assay [2] the test system is D3 (DNA, hairpin) CATTGTCATGCCTTTTTGGCATGACAATG
Put plainly: CD/UV melting at 260 nm. The conditions noted are these: 10 mM KCl, 10 mM MgCl2, 5 mM CaCl2; sodium dimethyl arsinate pH 6.9, 6% DMSO; 3.3 equiv compound, 8.87 μM DNA.

The test system of assay [3] is D3' (DNA, hairpin) CATTGTTATGCCTTTTTGGCATAACAATG
Put plainly: CD titration (ICD). The conditions noted are these: 10 mM KCl, 10 mM MgCl2, 5 mM CaCl2, 10 μM DNA.

Assay [4] relates to D3 (DNA, hairpin) CATTGTCATGCCTTTTTGGCATGACAATG
Put plainly: CD titration (ICD). As to conditions: 10 mM KCl, 10 mM MgCl2, 5 mM CaCl2, 10 μM DNA.

For assay [5], the system named is D2 (DNA, hairpin) CATTGTTAGACTTTTTGTCTAACAATG
Put plainly: CD titration (ICD). As to conditions: 10 mM KCl, 10 mM MgCl2, 5 mM CaCl2, 10 μM DNA.

For assay [6], the system named is D2' (DNA, hairpin) CATTGTCAGACTTTTTGTCTGACAATG
Put plainly: CD titration (ICD). The conditions noted are these: 10 mM KCl, 10 mM MgCl2, 5 mM CaCl2, 10 μM DNA.

Assay [7] has as its system D1' (DNA, hairpin) CATTGTTAGCCTTTTTGGCTAACAATG
Put plainly: CD/UV melting at 260 nm. The conditions noted are these: 10 mM KCl, 10 mM MgCl2, 5 mM CaCl2; sodium dimethyl arsinate pH 6.9, 6% DMSO; 3.3 equiv compound, 8.87 μM DNA.

Assay [8] has as its system D1 (DNA, hairpin) CATTGTCAGCCTTTTTGGCTGACAATG
Put plainly: CD titration (ICD). As to conditions: 10 mM KCl, 10 mM MgCl2, 5 mM CaCl2, 10 μM DNA.

Assay [9] shares this test system. Put plainly: CD/UV melting at 260 nm. As to conditions: 10 mM KCl, 10 mM MgCl2, 5 mM CaCl2; sodium dimethyl arsinate pH 6.9, 6% DMSO; 3.3 equiv compound, 8.87 μM DNA.
The test system of assay [10] is D1' (DNA, hairpin) CATTGTTAGCCTTTTTGGCTAACAATG
Put plainly: CD titration (ICD). As to conditions: 10 mM KCl, 10 mM MgCl2, 5 mM CaCl2, 10 μM DNA.

The test system of assay [11] is D2' (DNA, hairpin) CATTGTCAGACTTTTTGTCTGACAATG
Put plainly: CD/UV melting at 260 nm. The conditions noted are these: 10 mM KCl, 10 mM MgCl2, 5 mM CaCl2; sodium dimethyl arsinate pH 6.9, 6% DMSO; 3.6 equiv compound, 8.87 μM DNA.

Assay [12] deals with D2 (DNA, hairpin) CATTGTTAGACTTTTTGTCTAACAATG
Put plainly: CD/UV melting at 260 nm. The conditions noted are these: 10 mM KCl, 10 mM MgCl2, 5 mM CaCl2; sodium dimethyl arsinate pH 6.9, 6% DMSO; 3.9 equiv compound, 8.87 μM DNA.

Where [13] appears, read: 10 mM sodium dimethyl arsinate pH 6.9, up to 6% DMSO, 20 °C, saturation not reached.
The mark [14] stands for this setting: 10 mM sodium dimethyl arsinate pH 6.9, up to 6% DMSO, 20 °C.
Where [15] appears, read: 10 mM sodium dimethyl arsinate pH 6.9, 20 °C, up to 4.8 equiv, no ICD.

For the compound `CN(C)CCCNC(=O)CCNC(=O)c1cc(NC(=O)c2cc(NC(=O)c3nc(NC(=O)c4cc(NC(=O)Cc5cccc(/N=N\c6cccc(CNC(=O)c7cc(NC(=O)c8cc(NC(=O)c9cc(NC(=O)c%10nccn%10C)cn9C)cn8C)cn7C)c6)c5)cn4C)cn3C)cn2C)cn1C`, the ΔTm in assay [1] is given as 0.4 K; in assay [2] it was 3.5 K. Besides, the KD in assay [3] (setting [13]) came out at 52.9 ± 29.6 µM; in [4] (setting [14]) it was 21.3 ± 11.2 µM.
For the compound `CN(C)CCCNC(=O)CCNC(=O)c1cc(NC(=O)c2cc(NC(=O)c3cc(NC(=O)Cc4cccc(/N=N/c5cccc(CNC(=O)c6cc(NC(=O)c7cc(NC(=O)c8nccn8C)cn7C)cn6C)c5)c4)cn3C)cn2C)cn1C`, the binding entry in assay [5] (setting [15]) and in assay [6] (setting [15]) was “no” each time.
As for `CN(C)CCCNC(=O)CCNC(=O)c1cc(NC(=O)c2cc(NC(=O)c3nc(NC(=O)Cc4cccc(/N=N\c5cccc(CNC(=O)c6cc(NC(=O)c7cc(NC(=O)c8nccn8C)cn7C)cn6C)c5)c4)cn3C)cn2C)cn1C`, the ΔTm is 2.1 K in [7] and 3.5 K in [9]. For the same compound, the equilibrium dissociation constant (KD) in [8] (setting [14]) stood at 11.8 ± 6.0 µM; in assay [10] (setting [14]), 13.2 ± 7.8 µM.
`CN(C)CCCNC(=O)CCNC(=O)c1cc(NC(=O)c2cc(NC(=O)c3cc(NC(=O)Cc4cccc(/N=N\c5cccc(CNC(=O)c6cc(NC(=O)c7cc(NC(=O)c8nccn8C)cn7C)cn6C)c5)c4)cn3C)cn2C)cn1C`: the KD in assay [5] (setting [13]) worked out at 52.3 ± 21.0 µM; in assay [6] (setting [14]) it was 42.2 ± 6.3 µM. Moreover, the results for the ΔTm in assay [11] and in assay [12] were 1.4 K and 2.0 K, respectively.
`CN(C)CCCNC(=O)CCNC(=O)c1cc(NC(=O)c2cc(NC(=O)c3nc(NC(=O)c4cc(NC(=O)Cc5cccc(/N=N/c6cccc(CNC(=O)c7cc(NC(=O)c8cc(NC(=O)c9cc(NC(=O)c%10nccn%10C)cn9C)cn8C)cn7C)c6)c5)cn4C)cn3C)cn2C)cn1C`: the binding entry in assay [3] (setting [15]) and in assay [4] (setting [15]) was “no” each time.
Consider `CN(C)CCCNC(=O)CCNC(=O)c1cc(NC(=O)c2cc(NC(=O)c3nc(NC(=O)Cc4cccc(/N=N/c5cccc(CNC(=O)c6cc(NC(=O)c7cc(NC(=O)c8nccn8C)cn7C)cn6C)c5)c4)cn3C)cn2C)cn1C`, for which the binding result in assay [8] (setting [15]) and in [10] (setting [15]) was “no” in each case.
